# Source: ChEMBL document CHEMBL1201862, “PubChem BioAssay data set” (2004)
#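 Five concentrations, 48 hours, 96-well plates. GI50 is the concentration that inhibits growth by half.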 Active and inactive are the calls of the source. Cut-off read from the data, not from the text of the source: active = GI50 up to about 1.1 µM and inactive = higher.
# Columns and labels:
# Experiment in all cases: NCI-60 cell line screen, 48 h
# [1] = tested on: SF-295
# [2] = tested on: SK-OV-3
# [3] = tested on: M14
# [4] = tested on: TK-10
# [5] = tested on: 786-0
# [6] = tested on: KM12
# [7] = tested on: MOLT-4
# [8] = tested on: IGROV-1
# [9] = tested on: ACHN
# [10] = tested on: MDA-MB-231
# [11] = tested on: OVCAR-4
# [12] = tested on: SK-MEL-2
# [13] = tested on: NCI-H460
# [14] = tested on: K562
# [15] = tested on: SN12C
# [16] = tested on: NCI-H23
# [17] = tested on: SK-MEL-5
# [18] = tested on: OVCAR-5
# [19] = tested on: PC-3
# [20] = tested on: T47D
# [21] = tested on: SF-268
# [22] = tested on: LOX IMVI
# [23] = tested on: HT-29
# [24] = tested on: HCT-15
# [25] = tested on: UACC-257
# [26] = tested on: HL-60
# [27] = tested on: MDA-MB-435
# [28] = tested on: BT-549
# [29] = tested on: NCI-H522
# [30] = tested on: UO-31
# [31] = tested on: SNB-75
# [32] = tested on: SK-MEL-28
# [33] = tested on: RXF 393
# [34] = tested on: OVCAR-3
# [35] = tested on: CAKI-1
# [36] = tested on: OVCAR-8
# [37] = tested on: MCF7
# [38] = tested on: MDA-N
# [39] = tested on: HCT-116
# [40] = tested on: SW-620
# [41] = tested on: COLO 205
# [42] = tested on: A498
# [43] = tested on: CCRF-CEM
# [44] = tested on: RPMI-8226
# [45] = tested on: DU-145
# [46] = tested on: U-251
# [47] = tested on: UACC-62
# [48] = tested on: SNB-19
# [49] = tested on: SF-539
# [50] = tested on: SR
# [51] = tested on: A549
# [52] = tested on: EKVX
# [53] = tested on: NCI/ADR-RES
# [54] = tested on: NCI-H226
# [55] = tested on: HOP-62
# [56] = tested on: HCC 2998
# [57] = tested on: Malme-3M
# [58] = tested on: HOP-92
# [59] = tested on: Hs-578T
structure (smiles),measurement,setting,value
N=C1OC(CN2CCN(c3ccccc3)CC2)CN1C(=S)Nc1ccccc1 (centres undefined),GI50,[1],32.7 µM (inactive)
same,GI50,[2],> 100 µM (inactive)
same,GI50,[3],55 µM (inactive)
same,GI50,[4],43.5 µM (inactive)
same,GI50,[5],> 100 µM (inactive)
same,GI50,[6],39.2 µM (inactive)
same,GI50,[7],44.3 µM (inactive)
same,GI50,[8],92.7 µM (inactive)
same,GI50,[9],66.5 µM (inactive)
same,GI50,[10],> 100 µM (inactive)
same,GI50,[11],> 100 µM (inactive)
same,GI50,[12],59.2 µM (inactive)
same,GI50,[13],63.1 µM (inactive)
same,GI50,[14],33.9 µM (inactive)
same,GI50,[15],> 100 µM (inactive)
same,GI50,[16],50.6 µM (inactive)
same,GI50,[17],35.8 µM (inactive)
same,GI50,[18],97.5 µM (inactive)
same,GI50,[19],65.3 µM (inactive)
same,GI50,[20],35.6 µM (inactive)
same,GI50,[21],39.4 µM (inactive)
same,GI50,[22],25.3 µM (inactive)
same,GI50,[23],49.7 µM (inactive)
same,GI50,[24],91 µM
same,GI50,[25],56 µM (inactive)
same,GI50,[26],31 µM (inactive)
same,GI50,[27],76.6 µM (inactive)
same,GI50,[28],62.2 µM (inactive)
same,GI50,[29],28.9 µM (inactive)
same,GI50,[30],37.2 µM (inactive)
same,GI50,[31],31 µM (inactive)
same,GI50,[32],84.3 µM (inactive)
same,GI50,[33],41.1 µM (inactive)
same,GI50,[34],42.8 µM (inactive)
same,GI50,[35],95.5 µM (inactive)
same,GI50,[36],99.3 µM (inactive)
same,GI50,[37],37.2 µM (inactive)
same,GI50,[38],84.9 µM (inactive)
same,GI50,[39],> 100 µM (inactive)
same,GI50,[40],> 100 µM (inactive)
same,GI50,[41],> 100 µM (inactive)
same,GI50,[42],89.9 µM (inactive)
same,GI50,[43],37.1 µM (inactive)
same,GI50,[44],54 µM (inactive)
same,GI50,[45],> 100 µM (inactive)
same,GI50,[46],78.7 µM (inactive)
same,GI50,[47],48.8 µM (inactive)
same,GI50,[48],96.4 µM (inactive)
same,GI50,[49],96.2 µM (inactive)
same,GI50,[50],29.8 µM (inactive)
same,GI50,[51],94.8 µM (inactive)
same,GI50,[52],32.6 µM (inactive)
same,GI50,[53],45.4 µM (inactive)
same,GI50,[54],78.9 µM (inactive)
same,GI50,[55],45.5 µM (inactive)
same,GI50,[56],> 100 µM (inactive)
same,GI50,[57],38.9 µM (inactive)
same,GI50,[58],21.9 µM (inactive)
same,GI50,[59],13 µM (inactive)
